Two molecules from patent publication US20250213614A1, “Modified RELA Protein for Inducing Interferon Expression and Engineered Immune Cells with Improved Interferon Expression” (Institut Curie, priority 2022, published 2025) can be followed below.

The subject of one test is CD4+ T cells. The test is described as follows: IFN-I/III quantification (LEGENDplex) in CD4+ T cells, baseline or after STING stimulation. The test is classed as cell-based, human. The procedure: Plasmapheresis blood pockets were obtained from healthy adult volunteers after informed consent from the EFS (Establishment of French blood collection). Peripheral blood mononuclear cells (PBMCs) were isolated using Ficoll-Paque Plus (GE-17144003) and left overnight at 4° C. in RPMI (Thermo fischer #61870-010) with 10% heat-decomplemented fetal bovine serum (FBS, Eurobio #CVFSVFO0-01). CD14+ cells were enriched by positive selection (Miltenyi #130-050-201), the CD14 negative fraction was subsequently used to isolate total CD4+ T cells by negative selection (Stem Cell #17952). CD14+ cells were cultured in RPMI containing 10% FBS, 5% Penicillin-Streptomycin (PS, Thermo Fisher #10378-016), 50 μg/ml Gentamicin (Thermo Fisher #15750-045) and 10 mM HEPES (Thermo Fisher #15630-056). CD14+ cells were differentiated ex vivo into MDDC by supplementing the culture media with 50 ng/ml IL-4 (Miltenyi #130-093-922) and 10 ng/ml GM-CSF (Miltenyi #130-093-867). MDDC were used for experiments 3 or 4 days following the start of the culture. CD14+ cells were differentiated ex vivo into macrophages by adding 50 ng/ml MCSF (Miltenyi #130-096-492) to the culture media containing RPMI with 1% PS, 5% FBS and 5% human serum (Sigma #H4522). MDM were used 7 days following culture. Freshly isolated CD4+ T cells were cultured in X-VIVO 15 (Lonza #BE02-060F) and activated using anti-CD3 and anti-CD28 Dynabeads (fisher scientific #10548353) at the ratio of 1:5 (bead:cell). 100 U/ml human IL-2 (Immunotools #11340027) was added to cultures 2 days following TCR stimulation and media with IL-2 was replenished every 48 hours. To assess proliferation, freshly isolated CD4+ T cells were stained with cell proliferation dye (thermo fischer #65-0840-85) prior to TCR stimulation.
CD14+ cells were plated at 1 million cells/ml and transduced with equal volumes of freshly harvested SIV-VLPs and pTRIP-SFFV vectors in the presence of 8 μg/ml protamine (Sigma #P4020). CD4+ T cells were transduced with lentivectors 24 hours post-TCR stimulation in 100 μl of cells (0.2 million cells) and 100 μl of freshly harvested lentivirus in the presence of 8 μg/ml protamine. T cells were spinoculated at 1200 g for 2 hours at 25° C. 0.5 million THP-1 cells in 500 μl media (RPMI 10% FBS 1% PS) were transduced with 500 μl freshly harvested lentivirus in the presence of 8 μg/ml protamine. 1 μg/ml Puromycin (Invivogen #ant-pr-1) was added 2 days post-transduction when cells were transduced with pLKO.1-puro plasmid.
For stimulation of STING by extracellular ligands, 2.5 μg of ADUS100 (invivogen #tlrl-nacda2r-01) or 2′3′-cGAMP (cGAMP, invivogen #tlrl-nacga23-02) was added to 100,000 cells in 100 μl media either on freshly isolated primary cells or 3-4 days post differentiation for MDDC and 3 days post-TCR stimulation for CD4+ T cells. Cells and supernatant were harvested 18-24 hours post stimulation. For delivery of STING ligands after permeabilization, T cells were used 3 or 4 days post TCR stimulation and MDDC were used 3-4 days following differentiation. 150,000 cells were plated in round bottom 96-well plate. Media was removed by centrifugation and 20 μl 2× permeabilization buffer (100 mM HEPES, 200 mM KCl, 6 mM MgCl2, 0.2 mM DTT, 170 mM Sucrose, 2 mM ATP, 2 mM GTP, 0.4% bovine serum albumin (BSA), 20 μg/ml digitonin) and 20 μl cGAMP (12 μg/ml) was added to cells. 18 to 20 hours following stimulation supernatants and cells were harvested. Cells were stained with a fixable viability dye (Invitrogen #65-0865-14) and acquired on a FACSVerse (BD). […]
Where indicated, cells were treated with 5-Azacytidine (5AZA, Sigma #A2385) 48 hours prior to cGAMP stimulation. Fresh 5AZA was added daily to cells, and media was replenished with 5AZA following cGAMP stimulation. 100 nM Trichostatin A (TSA) (sigma #T1952) was added to cells following cGAMP stimulation and left overnight. […]

Another test relates to cGAS. The test is described as follows: cGAMP quantification by ELISA in CD4+ T cells. It counts as cell-based, human. The conditions noted are these: CD4+ T cells expressing RELA K5R or IRF3, FIG. 5B. The procedure: For cGAS stimulation, 2 μg of control GFP plasmid DNA (provided in the kit) was nucelofected in 2 million T cells 72 hours post TCR stimulation (Lonza #VPA-1002) using the programme T020 (Lonza #Nucleofector 2b). Cells were harvested at 4 hours and 24 hours after nucleofection for analysis.
Cell pellets were stored at −80° C. until extraction. Frozen pellets were fixed in 80% cold methanol and subjected to 5 freeze-thaw cycles in liquid nitrogen. Samples were then centrifuged at 16,000 g for 20 minutes at 4° C. The supernatants were further subjected to drying in Savant DNA Speed Vac DNA 110 at 65° C. for 2 hours. The pellets were resuspended in 100 μl RNase- and DNase-free water and cGAMP was quantified by ELISA as per manufacturers protocol (Interchim #501700). cGAMP quantity was normalized to cell numbers and represented as pg/million cells.
In general terms: ELISA stands for enzyme-linked immunosorbent assay.

For the molecule “RELA K5R: RELA mutant converting five lysine residues (K122, K123, K310, K314, K315) to arginine, expressed from lentivector”, the “expression of IFNλ1 and IRF7” value in the test on CD4+ T cells (RELA K5R expressed in CD4+ T cells, no stimulation) is reported as “sufficient to induce”. For the same molecule, in the test on CD4+ T cells (lentivector overexpression in CD4+ T cells, FIG. 2B, 2D, 2F), the “IFNλ1 after cGAMP stimulation” value is given as “augmented in response to cGAMP”. Besides, the “IFNα2 in response to cGAMP” value in the test with CD4+ T cells (lentivector overexpression in CD4+ T cells, FIG. 2D, 2F) is on record as “detectable”. Besides, in the test on CD4+ T cells (lentivector overexpression in CD4+ T cells, no cGAMP, FIG. 2D, 2F), the “baseline IFNλ1 expression” value is given as “increased baseline IFNλ1 expression”. The “cellular cGAMP” value with cGAS is “no significant increase”.

B1: IRF3: interferon Regulatory Factor 3, over-expressed from lentivector (protein, UniProt Q14653 1-427, looked up)
Interferon regulatory factor 3: MGTPKPRILPWLVSQLDLGQLEGVAWVNKSRTRFRIPWKHGLRQDAQQEDFGIFQAWAEATGAYVPGRDKPDLPTWKRNFRSALNRKEGLRLAEDRSKDPHDPHKIYEFVNSGVGDFSQPDTSPDTNGGGSTSDTQEDILDELLGNMVLAPLPDPGPPSLAVAPEPCPQPLRSPSLDNPTPFPNLGPSENPLKRLLVPGEEWEFEVTAFYRGRQVFQQTISCPEGLRLVGSEVGDRTLPGWPVTLPDPGMSLTDRGVMSYVRHVLSCLGGGLALWRAGQWLWAQRLGHCHTYWAVSEELLPNSGHGPDGEVPKDKEGGVFDLGPFIVDLITFTEGSGRSPRYALWFCVGESWPQDQPWTKRLVMVKVVPTCLRALVEMARVGGASSLENTVDLHISNSHPLSLTSDQYKAYLQDLVEGMDFQGPGES
Regarding B1, in the test on CD4+ T cells (IRF3 over-expression alone in CD4+ T cells, FIG. 3B), the “IFNα2 response to cGAMP” value was “only to a small extent”. Further, the IFNβ result with CD4+ T cells (IRF3 over-expression alone in CD4+ T cells, cGAMP, FIG. 3B) is on record as “remained undetectable”. Further, the “cellular cGAMP” value in the test with cGAS is recorded as “no significant increase”.
